# In patent US4753925A, “Antibacterial 1,7-diamino-1,4-dihydro-4-oxo-3-quinolinecarboxylic acids” (Bayer Aktiengesellschaft, priority 1984, dated 1988):
# Key:
# E. coli 455/7 = experiment: MIC, agar dilution test/Isosensitest medium; assay type: cell-based; conditions: Escherichia coli, agar dilution test, Isosensitest medium
# Text: (§1) In most cases the values are identical, but for some strains they are about 2-4 times better.
# (§2) Agar dilution test/Isosensitest medium
# Klebsiella 57 USA = experiment: MIC, agar dilution test/Isosensitest medium; assay type: cell-based; conditions: agar dilution test, Isosensitest medium
# Text: as §1, §2
# Providencia 12052 = experiment: MIC, agar dilution test/Isosensitest medium; assay type: cell-based; conditions: agar dilution test, Isosensitest medium
# Text: as §1, §2
# Klebsiella 6179 = experiment: MIC, agar dilution test/Isosensitest medium; assay type: cell-based; conditions: agar dilution test, Isosensitest medium
# Text: as §1, §2
# Pseudomonas W. = experiment: MIC, agar dilution test/Isosensitest medium; assay type: cell-based; conditions: agar dilution test, Isosensitest medium
# Text: as §1, §2
# Proteus mir. 8223 = experiment: MIC, agar dilution test/Isosensitest medium; assay type: cell-based; conditions: agar dilution test, Isosensitest medium
# Text: as §1, §2
# E. coli A 261 = experiment: MIC, agar dilution test/Isosensitest medium; assay type: cell-based; conditions: Escherichia coli, A261, agar dilution test, Isosensitest medium
# Text: as §1, §2
# Proteus mir. 8175 = experiment: MIC, agar dilution test/Isosensitest medium; assay type: cell-based; conditions: agar dilution test, Isosensitest medium
# Text: as §1, §2
# [1] = Serum levels in mice following subcutaneous administration; assay type: in vivo; conditions: mouse, sc, 5 mg/kg, read-out: Serum level; for concentration at 0.25 h: 15'; for concentration at 0.5 h: 30'
# Description: as §1
# Serum levels in mice following subcutaneous
# administration of 5 mg/kg
# [2] = Serum levels in mice after oral administration; assay type: in vivo; conditions: mouse, 5 mg/kg, read-out: Serum level; for concentration at 0.25 h: 15'; for concentration at 0.5 h: 30'
# Text: as §1
# Serum levels in mice after oral administration
# [3] = Pharmacokinetics in mice following oral and parenteral administration; assay type: in vivo; conditions: versus II
# Text: as §1
# strains of Table 1 = experiment: MIC comparison over the strains of Table 1; assay type: cell-based; conditions: versus II
# Text: as §1, §2
smiles,measurement,setting,value
"CNn1cc(C(=O)O)c(=O)c2cc(F)c(N3CCN(C)CC3)cc21 [II, reference compound]",MIC,E. coli 455/7,8 µg/mL
same,MIC,Klebsiella 57 USA,0.25 µg/mL
same,MIC,Providencia 12052,16 µg/mL
same,MIC,Klebsiella 6179,0.25 µg/mL
same,MIC,Pseudomonas W.,1 µg/mL
same,MIC,Proteus mir. 8223,4 µg/mL
same,MIC,E. coli A 261,0.06 µg/mL
same,MIC,Proteus mir. 8175,0.125 µg/mL
same,concentration at 0.25 h,[1],840 ng/mL
same,concentration at 0.5 h,[1],1300 ng/mL
same,concentration at 1 h,[1],450 ng/mL
same,concentration at 2 h,[1],100 ng/mL
same,concentration at 0.25 h,[2],700 ng/mL
same,concentration at 0.5 h,[2],580 ng/mL
same,concentration at 1 h,[2],320 ng/mL
same,concentration at 2 h,[2],100 ng/mL
CNn1cc(C(=O)O)c(=O)c2cc(F)c(N3CCN(C)CC3)c(F)c21 [Example 3],MIC,E. coli 455/7,8 µg/mL
same,MIC,Klebsiella 57 USA,0.125 µg/mL
same,MIC,Providencia 12052,4 µg/mL
same,MIC,Klebsiella 6179,0.125 µg/mL
same,MIC,Pseudomonas W.,1 µg/mL
same,MIC,Proteus mir. 8223,4 µg/mL
same,MIC,E. coli A 261,0.06 µg/mL
same,MIC,Proteus mir. 8175,0.25 µg/mL
same,Bioavailability compared with the comparison product,[3]; following oral and parenteral administration,better bioavailability
same,Serum levels compared with the comparison product,"[3]; mice, oral and parenteral",higher serum levels
same,concentration at 0.25 h,[1],1200 ng/mL
same,concentration at 0.5 h,[1],1400 ng/mL
same,concentration at 1 h,[1],920 ng/mL
same,concentration at 2 h,[1],300 ng/mL
same,MIC values compared with II: times better,strains of Table 1; for some strains,2-4 times
same,MIC values compared with II,strains of Table 1; in most cases,identical
same,concentration at 0.25 h,[2],900 ng/mL
same,concentration at 0.5 h,[2],1200 ng/mL
same,concentration at 1 h,[2],600 ng/mL
same,concentration at 2 h,[2],250 ng/mL
